Experiment in all cases: growth of human tumour cells (NCI), 48 h
For experiment [1], the system named is CAKI-1.
The subject of experiment [2] is COLO 205.
The test system of experiment [3] is DU-145.
Experiment [4] deals with HCT-116.
The subject of experiment [5] is HCT-15.
Experiment [6] concerns Hs-578T.
In experiment [7] the test system is MDA-N.
The subject of experiment [8] is NCI-H522.
The subject of experiment [9] is OVCAR-4.
Experiment [10] relates to RPMI-8226.
In experiment [11] the test system is SK-MEL-2.
The test system of experiment [12] is SK-OV-3.
The test system of experiment [13] is SW-620.
Experiment [14] deals with K562.
The test system of experiment [15] is Malme-3M.

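A five-concentration, 48-hour dose response in 96-well plates underlies each endpoint, interpolated linearly between surrounding concentrations. GI50 marks 50% less growth.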 Calls of active or inactive are those of the source. No stated cut-off is given here; in the data, active = GI50 up to about 1.1 µM and inactive = higher. Some results are limits rather than exact numbers.

This note sets out measurements from ChEMBL document CHEMBL1201862, “PubChem BioAssay data set” (2004).

Take `O=C(CN1C(=O)c2ccccc2C1=O)C(O)CN1C(=O)c2ccccc2C1=O` (stereo not drawn): the GI50 in experiment [1] is > 100 µM (inactive); in experiment [2], > 100 µM (inactive); in experiment [3], 47.2 µM (inactive); in [4], > 100 µM (inactive); in [5], 92.5 µM; in experiment [6] it was 34.7 µM (inactive). For the same compound, the GI50 is > 100 µM (inactive) in [7]; > 100 µM (inactive) in experiment [8]; 98.4 µM (inactive) in [9]; > 100 µM (inactive) in [10]; > 100 µM (inactive) in [11]; 27.9 µM (inactive) in [12]. In addition, the GI50 in experiment [13] was > 100 µM (inactive).

In the case of `COC1(OC)CC(CO)(CNc2nc(N)nc(Cl)c2/C=N\O)C1`, the GI50 is 57.4 µM (inactive) in [1]; 38.6 µM (inactive) in experiment [2]; 34.3 µM (inactive) in experiment [3]; 50.4 µM (inactive) in experiment [4]; 75.5 µM in [5]; 22.7 µM (inactive) in experiment [6]. In addition, the GI50 was 17.7 µM (inactive) in [14]; 63.2 µM (inactive) in experiment [7]; 20.8 µM (inactive) in experiment [15]; 6.67 µM (inactive) in experiment [8]; 29.5 µM (inactive) in experiment [9]; 13.6 µM (inactive) in experiment [10]. In [13], the GI50 is > 100 µM (inactive).

On to `Clc1cc(Cl)c2cc3cccc[n+]3cc2c1Cl`, for which the GI50 was 6.17 µM (inactive) in [1]; 14.8 µM (inactive) in experiment [2]; 15.2 µM (inactive) in [3]; 6.44 µM (inactive) in [4]; 18.3 µM in experiment [5]; 18.1 µM (inactive) in experiment [6]. Also, the GI50 in experiment [14] was 19 µM (inactive); in experiment [7] it was 16.5 µM (inactive); in experiment [15] it was 22.2 µM (inactive); in [9], 15.5 µM (inactive); in experiment [10] it was 16.4 µM (inactive); in experiment [11], 16.3 µM (inactive). For the same compound, the results for the GI50 in [12] and in experiment [13] were 16.6 µM (inactive) and 17.6 µM (inactive), respectively.

In the case of `O=C(Nc1nc(C23CC4CC(CC(C4)C2)C3)cs1)c1c(O)c2ccccc2[nH]c1=O`, the GI50 was > 100 µM (inactive) in experiment [1]; > 100 µM (inactive) in experiment [2]; > 100 µM (inactive) in experiment [3]; > 100 µM (inactive) in [4]; more than 100 µM in [5]; > 100 µM (inactive) in experiment [6]. The GI50 in experiment [14] was > 100 µM (inactive); in [7], > 100 µM (inactive); in experiment [15], > 100 µM (inactive); in [8], > 100 µM (inactive); in experiment [9], 60.5 µM (inactive); in [10], > 100 µM (inactive). For the same compound, the GI50 in [13] was > 100 µM (inactive).

For `Nc1ncnc2c1ncn2C1C=CC(COS(N)(=O)=O)C1` (stereo not drawn), the GI50 was 3.28 µM (inactive) in experiment [1]; 16.9 µM (inactive) in experiment [2]; 66.8 µM (inactive) in [3]; 9.38 µM (inactive) in [4]; 9.27 µM in experiment [5]; 15.6 µM (inactive) in experiment [6]. In addition, the GI50 in experiment [14] was 16.2 µM (inactive); in experiment [7] it was 22.5 µM (inactive); in [15], > 100 µM (inactive); in experiment [9] it was 34.3 µM (inactive); in experiment [10], 2.93 µM (inactive); in experiment [11], 39.3 µM (inactive). In addition, the results for the GI50 in experiment [12] and in experiment [13] were 52.7 µM (inactive) and 12.9 µM (inactive), respectively.

`CCc1cc2c(oc3cc(C)ccc32)c(=O)n1C`: the GI50 was > 10 µM (inactive) in experiment [3]; > 10 µM (inactive) in [4]; more than 10 µM in experiment [5]; > 10 µM (inactive) in experiment [6]; > 10 µM (inactive) in experiment [14]; > 10 µM (inactive) in experiment [7]. The GI50 in experiment [15], in [8], in [9], in experiment [11], in experiment [12] and in [13] was > 10 µM (inactive) each time.

Turning to `COc1nc(O)nc2c1C(c1ccc([N+](=O)[O-])cc1)c1c(OC)nc(O)nc1O2`, the GI50 is > 100 µM (inactive) in experiment [1]; > 100 µM (inactive) in [2]; > 100 µM (inactive) in experiment [3]; > 100 µM (inactive) in [4]; more than 100 µM in [5]; > 100 µM (inactive) in experiment [6]. The GI50 in [7], in experiment [8], in experiment [9], in experiment [10], in [11] and in [12] was > 100 µM (inactive) in each case. In addition, the GI50 in experiment [13] is > 100 µM (inactive).

In the case of `OC(c1cc2ccc(C(F)(F)F)cc2c2cc(C(F)(F)F)ccc12)C1CCCCN1` (stereo not drawn), the GI50 in experiment [1] is 1.8 µM (inactive); in experiment [2] it was 1.59 µM (inactive); in experiment [3], 1.8 µM (inactive); in experiment [4], 1.46 µM (inactive); in experiment [5], 1.79 µM; in experiment [6], 1.9 µM (inactive). Besides, the GI50 is 1.55 µM (inactive) in experiment [14]; 1.75 µM (inactive) in experiment [7]; 0.0498 µM (active) in experiment [15]; 1.7 µM (inactive) in experiment [8]; 1.77 µM (inactive) in experiment [9]; 2.17 µM (inactive) in experiment [10]. For the same compound, the figures for the GI50 in experiment [11], in experiment [12] and in [13] were 1.91 µM (inactive), 2.36 µM (inactive) and 1.49 µM (inactive), respectively.

Turning to `c1ccc(Cc2cccc3cc(-c4ccc(-c5ccccc5)cc4)[nH]c23)cc1`, the GI50 was 75.7 µM (inactive) in experiment [1]; > 100 µM (inactive) in experiment [2]; 54.6 µM (inactive) in [3]; > 100 µM (inactive) in experiment [4]; more than 100 µM in experiment [5]; 14.7 µM (inactive) in experiment [6]. The GI50 in experiment [7] is > 100 µM (inactive); in experiment [15] it was 1.76 µM (inactive); in experiment [8] it was 17.2 µM (inactive); in [9], 19.7 µM (inactive); in experiment [10], 71.4 µM (inactive); in [11] it was > 100 µM (inactive). In addition, the GI50 in experiment [12] was > 100 µM (inactive); in [13], 92 µM (inactive).

Regarding `OCc1ccccc1O[C@H]1O[C@H](CO)[C@@H](O)[C@H](O)[C@H]1O`, the GI50 was > 100 µM (inactive) in experiment [1]; > 100 µM (inactive) in [2]; > 100 µM (inactive) in experiment [3]; > 100 µM (inactive) in experiment [4]; more than 100 µM in [5]; > 100 µM (inactive) in [6]. Besides, the GI50 in experiment [7], in experiment [15], in experiment [8], in experiment [9], in [10] and in experiment [11] was > 100 µM (inactive) each time. The GI50 in experiment [12] and in [13] was > 100 µM (inactive) throughout.

Turning to `Cc1cc(C)c2c(O)cc(-c3cccc(Cl)c3)nc2n1`, the GI50 in [2] is 0.175 µM (active); in experiment [3] it was 0.5 µM (active); in [4], 0.0791 µM (active); in experiment [5], 0.101 µM; in experiment [6], 0.252 µM (active); in [14], < 0.0199 µM (active). Also, the GI50 in experiment [7] is 0.0138 µM (active); in [15], 0.18 µM (active); in experiment [8] it was 0.0356 µM (active); in experiment [9] it was 77.3 µM (inactive); in experiment [10] it was 0.148 µM (active); in experiment [12] it was 0.293 µM (active). Besides, the GI50 in experiment [13] was 0.0578 µM (active).
